Results as given in publication PMC9841524, “Structure-Based Rational Design of Small α-Helical Peptides with Broad-Spectrum Activity against Multidrug-Resistant Pathogens” (Journal of Medicinal Chemistry, 2022).
Read-outs that look alike come from different tables or passages of the source. Where no end group is shown, it is not given here.

Columns and labels:
[1] = system: human red blood cells (hRBCs); experiment: Hemolytic assay; type: cell-based; settings: 2 h, 37 °C
Procedure: The hemolytic activity of all peptides (1a–8d) was determined using hRBC. The assay was conducted by adding 75 μL of 2-fold serially diluted peptides to 75 μL of hRBC suspension (4% in PBS). The plates were incubated for 2 h at 37 °C without agitation. In order to determine the hemolysis at each tested concentration of peptides, the plate was centrifuged, and 100 μL of the supernatant was transferred to another 96-well plate to determine hemoglobin release spectrophotometrically at 567 nm. Percent hemolysis was calculated by the following formula [drawing 1] where A represents the absorbance of the peptide sample at 567 nm and A0 and At represent zero percent and 100% hemolysis determined in phosphate buffer saline and 1% Triton X-100, respectively.

[2] = system: P. aeruginosa (ATCC 27883); experiment: MIC, standard microtiter dilution (CLSI); type: cell-based, Pseudomonas aeruginosa; settings: broth microdilution (CLSI), CAMHB, 37 °C, 24 h
Procedure: (§1) Description of the characteristics and growth conditions of various bacterial strains used in the study are provided in the Supporting Information (Table S3). Antibacterial susceptibility testing was carried out using a standard microtiter dilution method recommended by the clinical and laboratory standard institute (CLSI) and measured as a minimum inhibitory concentration (MIC), the lowest peptide concentration that inhibited bacterial growth. Briefly, the overnight grown cultures in the recommended broth for each bacterial strain were diluted in cation-adjusted Mueller Hinton Broth (CAMHB) to give an inoculum of 10^6 colony-forming units (CFU)/mL. A 2-fold serially diluted test peptide solution (100 μL) was added to the microtiter plates. After adding bacterial suspension (100 μL), the plates were incubated at 37 °C for 24 h, and the MICs were determined. The same protocol was used to determine the MICs in the presence of salts and serum except using the media supplemented with various cationic salts (150 mM NaCl, 4.5 mM KCl, 6 mM NH4Cl, 1 mM MgCl2, and 2 mM CaCl2) or 25% FBS. The data was acquired from three independent assays performed in triplicate.
(§2) The bacterial strains employed in this study were obtained from the American Type Culture Collection (ATCC). Each strain was propagated as recommended by the ATCC, and each strain was stored as a frozen glycerol stock at -80°C. A bacterial colony was grown on the appropriate agar as indicated in Table S1 and was used to inoculate the appropriate broth. The culture was incubated at the appropriate conditions, as mentioned in Table S1. Following the incubation, the culture was diluted to an optical density 625 nm (OD625) of 0.1 in cation adjusted Mueller Hinton Broth (CAMHB), which is equivalent to 1 × 10^8 CFU/mL. The culture was further diluted to 1 × 10^6 CFU/mL, which was used to conduct the MIC determination assay. For the S. pneumoniae strains, CAMHB + 2.5% lysed horse blood was required for the assay. The strains with their […]
(§3) Table S3. Description of the characteristics and growth conditions of various bacterial strains

S. aureus (ATCC 29213) = experiment: MIC, standard microtiter dilution (CLSI); type: cell-based; settings: broth microdilution (CLSI), CAMHB, 37 °C, 24 h
Procedure: as §1, §2, §3

[3] = system: K. pneumoniae (ATCCBAA-1705); experiment: MIC, standard microtiter dilution (CLSI); type: cell-based, Klebsiella pneumoniae; settings: broth microdilution (CLSI), CAMHB, 37 °C, 24 h
Procedure: as §1, §2, §3

E. coli (ATCC 25922) = settings: broth microdilution (CLSI), CAMHB, 37 °C, 24 h
Procedure: as §1, §2, §3

MRSA (ATCC BAA-1556) = settings: broth microdilution (CLSI), CAMHB, 37 °C, 24 h
Procedure: as §1, §2, §3

[4] = hRBC suspension 4% in PBS, hemoglobin release at 567 nm, 1% Triton X-100 = 100%
[5] = value in parentheses (μM), hRBC 4% in PBS, 567 nm
[6] = 10^6 CFU/mL, highest MIC of three independent experiments in triplicate

Row | Substance | HC50 (concentration at which 50% hemolysis was observed) [1, 4] [µg/mL] | HC50 (concentration at which 50% hemolysis was observed) [1, 5] [µM] | MIC, P. aeruginosa (ATCC 27883) [2, 6] [µg/mL] | MIC, P. aeruginosa (ATCC 27883) ([2]; value in parentheses (μM)) [µM] | MIC, S. aureus (ATCC 29213) (S. aureus (ATCC 29213); [6]) [µg/mL] | MIC, S. aureus (ATCC 29213) (S. aureus (ATCC 29213); value in parentheses (μM)) [µM] | MIC, K. pneumoniae (ATCCBAA-1705) [3, 6] [µg/mL] | MIC, K. pneumoniae (ATCCBAA-1705) ([3]; value in parentheses (μM)) [µM] | MIC, E. coli (ATCC 25922) (E. coli (ATCC 25922); [6]) [µg/mL] | MIC, E. coli (ATCC 25922) (E. coli (ATCC 25922); value in parentheses (μM)) [µM] | MIC, MRSA (ATCC BAA-1556) (MRSA (ATCC BAA-1556); [6]) [µg/mL] | MIC, MRSA (ATCC BAA-1556) (MRSA (ATCC BAA-1556); value in parentheses (μM)) [µM]
1 | RWWRRAWRAA-NH2 [4c] | > 500 | > 353.69 | > 100 | > 70.74 | > 100 | > 70.74 | > 100 | > 70.74 | > 100 | > 70.74 | > 100 | > 70.74
2 | Ac-RWLRRWLRWWR-NH2 [5f] | 65 | 35.89 | 25 | 13.80 | 12.5 | 6.90 | 50 | 27.61 | 50 | 27.61 | 12.5 | 6.90
3 | RWWRRAWR-NH2 [2b] | > 500 | > 393.23 | > 100 | > 78.65 | > 100 | > 78.65 | > 100 | > 78.65 | > 100 | > 78.65 | > 100 | > 78.65
4 | RWWRAAWRR-NH2 [3d] | > 500 | > 372.42 | > 100 | > 74.48 | > 100 | > 74.48 | > 100 | > 74.48 | > 100 | > 74.48 | > 100 | > 74.48
5 | RWWRRAWRA-NH2 [3a] | > 500 | > 372.42 | > 100 | > 74.48 | > 100 | > 74.48 | > 100 | > 74.48 | > 100 | > 74.48 | > 100 | > 74.48
6 | H-RAWRRAWRAW-NH2 [4a] | > 500 | > 353.69 | > 100 | > 70.74 | > 100 | > 70.74 | > 100 | > 70.74 | > 100 | > 70.74 | > 100 | > 70.74
7 | H-RAWRRWWARA-NH2 [4g] | > 500 | > 353.69 | > 100 | > 70.74 | > 100 | > 70.74 | > 100 | > 70.74 | > 100 | > 70.74 | > 100 | > 70.74
8 | RWARRWWR-NH2 [2c] | > 500 | > 393.23 | > 100 | > 78.65 | > 100 | > 78.65 | > 100 | > 78.65 | > 100 | > 78.65 | > 100 | > 78.65
9 | WRRWARRW-NH2 [2d] | > 500 | > 393.23 | > 100 | > 78.65 | > 100 | > 78.65 | > 100 | > 78.65 | > 100 | > 78.65 | > 100 | > 78.65
10 | RAARRWARWWR-NH2 [5a] | > 500 | > 318.50 | > 100 | > 63.70 | 100 | 63.70 | > 100 | > 63.70 | > 100 | > 63.70 | 100 | 63.70
11 | RRWRRWW-NH2 [1d] | > 500 | > 416.52 | > 100 | > 83.30 | 100 | 83.30 | > 100 | > 83.30 | > 100 | > 83.30 | 100 | 83.30
12 | AWWRRAWRR-NH2 [3f] | > 500 | > 372.42 | > 100 | > 74.48 | > 100 | > 74.48 | > 100 | > 74.48 | > 100 | > 74.48 | > 100 | > 74.48
